Results: ChEMBL document CHEMBL1201862, “PubChem BioAssay data set” (2004)
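Test compounds were applied to cells in 96-well plates for 48 hours at 5 doses. GI50: concentration for 50% inhibition of growth.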 Active and inactive are the calls of the source. Cut-off read from the data, not from the text of the source: active = GI50 up to about 1.1 µM and inactive = higher.

Legend:
Assay in all cases: NCI tumour cell line growth inhibition, 48 h
HCC 2998 = system: HCC 2998
SNB-75 = system: SNB-75
OVCAR-4 = system: OVCAR-4
Hs-578T = system: Hs-578T
HCT-116 = system: HCT-116
UACC-62 = system: UACC-62
UO-31 = system: UO-31
SK-MEL-2 = system: SK-MEL-2
IGROV-1 = system: IGROV-1
A498 = system: A498
U-251 = system: U-251
EKVX = system: EKVX
MDA-N = system: MDA-N
CAKI-1 = system: CAKI-1
HOP-62 = system: HOP-62
MDA-MB-435 = system: MDA-MB-435
MCF7 = system: MCF7
HT-29 = system: HT-29
LOX IMVI = system: LOX IMVI
NCI-H23 = system: NCI-H23
SN12C = system: SN12C
SR = system: SR
K562 = system: K562
PC-3 = system: PC-3
CCRF-CEM = system: CCRF-CEM
Malme-3M = system: Malme-3M
SF-295 = system: SF-295
M14 = system: M14
A549 = system: A549
NCI-H226 = system: NCI-H226
RXF 393 = system: RXF 393
T47D = system: T47D
MDA-MB-231 = system: MDA-MB-231
SF-539 = system: SF-539
OVCAR-3 = system: OVCAR-3
DU-145 = system: DU-145
HCT-15 = system: HCT-15
SW-620 = system: SW-620
SK-MEL-5 = system: SK-MEL-5
SK-MEL-28 = system: SK-MEL-28
SF-268 = system: SF-268
COLO 205 = system: COLO 205
UACC-257 = system: UACC-257
MOLT-4 = system: MOLT-4
NCI-H460 = system: NCI-H460
BT-549 = system: BT-549
TK-10 = system: TK-10
OVCAR-5 = system: OVCAR-5
NCI/ADR-RES = system: NCI/ADR-RES
SK-OV-3 = system: SK-OV-3
HL-60 = system: HL-60
OVCAR-8 = system: OVCAR-8
HOP-92 = system: HOP-92
SNB-19 = system: SNB-19
786-0 = system: 786-0
NCI-H522 = system: NCI-H522
RPMI-8226 = system: RPMI-8226
ACHN = system: ACHN
KM12 = system: KM12

Compound: O=c1cc(-c2cc(O)c(O)c(-c3c(O)cc4oc(-c5ccc(O)c(O)c5)cc(=O)c4c3O)c2)oc2cc(O)cc(O)c12
- GI50 (HCC 2998): > 25 µM (inactive)
- GI50 (SNB-75): 24.9 µM (inactive)
- GI50 (OVCAR-4): > 25 µM (inactive)
- GI50 (Hs-578T): > 25 µM (inactive)
- GI50 (HCT-116): 17.5 µM (inactive)
- GI50 (UACC-62): > 25 µM (inactive)
- GI50 (UO-31): > 25 µM (inactive)
- GI50 (SK-MEL-2): > 25 µM (inactive)
- GI50 (IGROV-1): > 25 µM (inactive)
- GI50 (A498): > 25 µM (inactive)
- GI50 (U-251): 19.2 µM (inactive)
- GI50 (EKVX): > 25 µM (inactive)
- GI50 (MDA-N): > 25 µM (inactive)
- GI50 (CAKI-1): > 25 µM (inactive)
- GI50 (HOP-62): > 25 µM (inactive)
- GI50 (MDA-MB-435): > 25 µM (inactive)
- GI50 (MCF7): > 25 µM (inactive)
- GI50 (HT-29): > 25 µM (inactive)
- GI50 (LOX IMVI): > 25 µM (inactive)
- GI50 (NCI-H23): > 25 µM (inactive)
- GI50 (SN12C): > 25 µM (inactive)
- GI50 (SR): > 25 µM (inactive)
- GI50 (K562): > 25 µM (inactive)
- GI50 (PC-3): > 25 µM (inactive)
- GI50 (CCRF-CEM): > 25 µM (inactive)
- GI50 (Malme-3M): > 25 µM (inactive)
- GI50 (SF-295): > 25 µM (inactive)
- GI50 (M14): > 25 µM (inactive)
- GI50 (A549): > 25 µM (inactive)
- GI50 (NCI-H226): > 25 µM (inactive)
- GI50 (RXF 393): > 25 µM (inactive)
- GI50 (T47D): 11.3 µM (inactive)
- GI50 (MDA-MB-231): > 25 µM (inactive)
- GI50 (SF-539): > 25 µM (inactive)
- GI50 (OVCAR-3): > 25 µM (inactive)
- GI50 (DU-145): > 25 µM (inactive)
- GI50 (HCT-15): > 25 µM
- GI50 (SW-620): > 25 µM (inactive)
- GI50 (SK-MEL-5): > 25 µM (inactive)
- GI50 (SK-MEL-28): > 25 µM (inactive)
- GI50 (SF-268): > 25 µM (inactive)
- GI50 (COLO 205): > 25 µM (inactive)
- GI50 (UACC-257): > 25 µM (inactive)
- GI50 (MOLT-4): > 25 µM (inactive)
- GI50 (NCI-H460): > 25 µM (inactive)
- GI50 (BT-549): > 25 µM (inactive)
- GI50 (TK-10): > 25 µM (inactive)
- GI50 (OVCAR-5): > 25 µM (inactive)
- GI50 (NCI/ADR-RES): > 25 µM (inactive)
- GI50 (SK-OV-3): > 25 µM (inactive)
- GI50 (HL-60): > 25 µM (inactive)
- GI50 (OVCAR-8): > 25 µM (inactive)
- GI50 (HOP-92): > 25 µM (inactive)

Compound: COc1ccc(-c2nnc(CCCCCCCCc3nnc(-c4ccc(OC)cc4)n3N)n2N)cc1
- GI50 (HCC 2998): > 100 µM (inactive)
- GI50 (SNB-75): 37.9 µM (inactive)
- GI50 (OVCAR-4): > 100 µM (inactive)
- GI50 (Hs-578T): > 59 µM (inactive)
- GI50 (HCT-116): > 66.1 µM (inactive)
- GI50 (UACC-62): > 92 µM (inactive)
- GI50 (UO-31): > 100 µM (inactive)
- GI50 (SK-MEL-2): > 81.5 µM (inactive)
- GI50 (IGROV-1): > 96.6 µM (inactive)
- GI50 (A498): > 65.3 µM (inactive)
- GI50 (U-251): > 56.9 µM (inactive)
- GI50 (EKVX): > 100 µM (inactive)
- GI50 (MDA-N): > 100 µM (inactive)
- GI50 (CAKI-1): > 100 µM (inactive)
- GI50 (HOP-62): 28.2 µM (inactive)
- GI50 (SNB-19): > 60.3 µM (inactive)
- GI50 (MDA-MB-435): > 100 µM (inactive)
- GI50 (MCF7): > 100 µM (inactive)
- GI50 (HT-29): > 100 µM (inactive)
- GI50 (LOX IMVI): > 100 µM (inactive)
- GI50 (NCI-H23): > 100 µM (inactive)
- GI50 (SN12C): > 100 µM (inactive)
- GI50 (SR): > 100 µM (inactive)
- GI50 (K562): > 100 µM (inactive)
- GI50 (786-0): > 31.6 µM (inactive)
- GI50 (NCI-H522): > 56.5 µM (inactive)
- GI50 (PC-3): > 100 µM (inactive)
- GI50 (CCRF-CEM): > 100 µM (inactive)
- GI50 (Malme-3M): > 100 µM (inactive)
- GI50 (SF-295): > 59.4 µM (inactive)
- GI50 (M14): > 100 µM (inactive)
- GI50 (A549): > 100 µM (inactive)
- GI50 (RPMI-8226): > 100 µM (inactive)
- GI50 (NCI-H226): > 100 µM (inactive)
- GI50 (T47D): > 100 µM (inactive)
- GI50 (MDA-MB-231): > 57.8 µM (inactive)
- GI50 (SF-539): > 76.2 µM (inactive)
- GI50 (OVCAR-3): > 100 µM (inactive)
- GI50 (DU-145): > 100 µM (inactive)
- GI50 (HCT-15): > 100 µM
- GI50 (SW-620): > 100 µM (inactive)
- GI50 (SK-MEL-5): > 100 µM (inactive)
- GI50 (ACHN): > 100 µM (inactive)
- GI50 (SK-MEL-28): > 100 µM (inactive)
- GI50 (SF-268): > 58.2 µM (inactive)
- GI50 (COLO 205): > 100 µM (inactive)
- GI50 (UACC-257): > 100 µM (inactive)
- GI50 (MOLT-4): > 100 µM (inactive)
- GI50 (NCI-H460): > 100 µM (inactive)
- GI50 (BT-549): 58.5 µM (inactive)
- GI50 (TK-10): > 60 µM (inactive)
- GI50 (KM12): > 100 µM (inactive)
- GI50 (OVCAR-5): > 100 µM (inactive)
- GI50 (NCI/ADR-RES): > 31.6 µM (inactive)
- GI50 (SK-OV-3): > 56.2 µM (inactive)
- GI50 (HL-60): > 100 µM (inactive)
- GI50 (OVCAR-8): > 31.6 µM (inactive)
- GI50 (HOP-92): > 39.3 µM (inactive)
